In US20080118576A1, “PREDICTION OF AN AGENT'S OR AGENTS' ACTIVITY ACROSS DIFFERENT CELLS AND TISSUE TYPES” (priority 2006, published 2008):

Tests used:
[1] = tested on: 40 human urothelial (bladder) cancer cell lines; experiment: Alamar Blue growth inhibition of 40 bladder cancer cell lines, single drugs, 72 hours; assay type: cell-based; conditions: for criterion dose (CR): minimum dose at which at least 25% of cell lines showed growth inhibition >50%; for number of resistant cell lines / number of sensitive cell lines: of 40 bladder cancer cell lines; for number of sensitive cell lines: log10(GI50) ≤ CR
Procedure: The human bladder cancer cell lines and the respective growth conditions used in this study have been previously described (6, 7). Cisplatin was purchased from Sigma (St. Louis, Mo.), dissolved in Dulbecco's phosphate-buffered saline, and aliquoted in 1 mg/ml stocks. Paclitaxel was purchased from Sigma (St. Louis, Mo.), dissolved in Dimethyl Sulphoxide (DMSO), and aliquoted in 1 mM stocks. Gemcitabine was purchased from the University of Virginia Medical Center Pharmacy, dissolved in PBS, and aliquoted in 0.1 M stocks. Cell lines were maintained in appropriate media, in a humidified atmosphere containing 5% CO2 in air, except CRL2169 (SW780) which requires no CO2 for its growth. Cell lines were subcultured in an aqueous solution of 0.05% trypsin (Difco, 1:250) and 0.016% EDTA. Each cell line was used within 10 passages from its archival passage number in order to minimize any long term cell culture effects. Gene expression analysis of bladder cell lines was carried out as previously described using the HG-U133A GeneChip® array (Affymetrix®, Santa Clara, Calif., USA) (6, 7). The image file was analyzed with RMA, to obtain the expression intensity values of the microarray data (8).
Cell lines were seeded in 96-well cell culture plates (Costar) at a density of 1000 cells/well. 24 hours later, cells were exposed to the drugs diluted in RPMI-1640 medium, containing 10% FBS, concentration that is required by more than 75% of cell lines for their normal growth, at a total volume of 200 μL. Each drug dose was plated in triplicate, and the experiment was repeated four to seven times. The doses for Cisplatin were 200, 400, 800, 1600, 3200, and 6400 ng/ml; for Paclitaxel 0.0001, 0.001, 0.002, 0.005, 0.01, and 0.1 μM; for Gemcitabine 0.001, 0.01, 0.1, 1, 10, 100 μM.
From the dose-response data, log 10(GI50) values (log base 10 of concentration required to inhibit cell growth by 50% in comparison with untreated control) were estimated for all the cell lines by deriving log(dose) concentration curves on cell count percents as described below. To estimate the GI50 values reliably, we computed Euclidean distances among all replicated experiments, and excluded outlying experiments if they were in the top 20% among all measured distances. This percent was determined heuristically based on the general observations in experimental quality control. […] Subsequently, the data were fitted to a sigmoidal function such as the following nonlinear regression model for estimating each cell line's dose response curve:
Percent=1−1/(1+exp(−(log 10(dose)−β)/α),
where α and β determine the shape of a fitted line.
This sigmoidal regression function was used to capture the natural shapes of drug dose responses. Thus, the estimated β is the predicted log 10(GI50) value, the expected log concentration achieving the cell count reduction of 50%. Similarly, log 10(GI30), and log 10(GI70) values, i.e. the concentrations required to inhibit cell growth by 30%, and 70% in comparison with untreated control, were also calculated.
Cell line drug sensitivity was classified using the GI estimates and application of a criterion dose (CR) concept. […] Using these CR concentrations, each cell line was defined as sensitive if log 10(GI50)≦CR; strongly sensitive if […], or resistant if log 10(GI70)>CR, and intermediate if log 10(GI50)>CR and log 10(GI70)<CR.
To approach the development of molecular models of chemotherapeutic sensitivity in human bladder cancer, we focused on a well-defined series of 40 urothelial cell lines for which we could measure sensitivity to relevant chemotherapeutic agents in vitro and correlate these responses with global measurements of gene expression.

breast cancer patients = conditions: 24 patients, four cycles of neoadjuvant docetaxel, original study; cited from earlier work
breast cancer = conditions: cited from earlier work
bladder cancer = conditions: cited from earlier work
[2] = tested on: estrogen receptor-positive breast cancer patients; experiment: TAM-60 breast cancer clinical trial, time to recurrence classification; assay type: in vivo, human; conditions: of 60 patients
Procedure: In the tamoxifen clinical trial (TAM-60), 60 postmenopausal breast cancer patients with estrogen receptor-positive tumors were treated and followed for up to 180 months. Genome-wide expression profiling was performed on the primary tumors using a customized cDNA microarray platform.

[3] = tested on: BLA-40 human bladder cancer cell lines; experiment: In vitro growth inhibition (GI50) in BLA-40 cells, 48 hours, as for NCI-60; assay type: cell-based; conditions: for potency in BLA-40 compared with NCI-60 tissue panels: BLA-40 vs nine tissue-specific panels of NCI-60
Source text: Sensitivity of human bladder cancer cells to cisplatin, paclitaxel and NSC 637993. To test the predictive models, we performed in vitro drug response experiments, and then determined GI50 values for each bladder cell line for cisplatin, paclitaxel, and compound NSC 637993 (Supplementary Materials and Methods). Sensitivity to the agents was generated by a dose response experiments carried out on the BLA-40 cells as described for the NCI-60. The final concentrations of cisplatin used were 200, 400, 800, 1600, 3200, and 6400 ng/ml; those of Paclitaxel and NSC 637993 were 0.1, 1, 2, 5, 10, and 100 nM. In each case, the cells were plated on Day 0, exposed to drug for 48 hours) at 37° C., and then assayed. Each experiment was repeated three to five independent times, and the results were expressed as a fraction of the difference between initial cell count and untreated control. Log 10(GI50) values were then estimated from the resulting dose-response curves. Bladder cell lines were defined as sensitive or resistant as described above for the NCI-60 panel. […]
In the first application of the COXEN algorithm, for example, Cell Sets 1 and 2 were the NCI-60 and BLA-40 cell panels, respectively; the Step 1 drug activities were those assessed by DTP in the NCI-60 using a 48-hour sulforhodamine B assay; the “molecular characteristic” in Steps 2 and 4 was transcript expression level, as assessed using Affymetrix HG-U133A microarrays; the algorithm in Step 3 was “Significance Analysis of Microarrays (SAM)” or two-sample t-test; Step 5 was a novel “co-expression extrapolation” algorithm; Step 6 was another novel algorithm, “Misclassification-Penalized Posterior” (MiPP), which we recently introduced for selection of the best mathematical “models” for the prediction; and applying the prediction models obtained in Step 6, independent testing of the predictions on BLA-40 cells was performed, mimicking the way the assay for the NCI-60 by DTP.

Row | Structure (SMILES) | criterion dose (CR) [1] | number of resistant cell lines [1] | number of sensitive cell lines [1] | also measured
1 | Nc1ccn([C@@H]2O[C@H](CO)[C@@H](O)C2(F)F)c(=O)n1 [Gemcitabine] | 0.1 µM | 11 | 8 | –
2 | CC(=O)O[C@@]12CO[C@@H]1C[C@H](O)[C@@]1(C)C(=O)[C@H](O)C3=C(C)[C@@H](OC(=O)[C@H](O)[C@@H](NC(=O)OC(C)(C)C)c4ccccc4)C[C@@](O)([C@@H](OC(=O)c4ccccc4)[C@H]21)C3(C)C [docetaxel] | – | – | – | number of non-responder patients (breast cancer patients): 13; number of responder patients (breast cancer patients): 11
3 | O=c1[nH]cc(F)c(=O)[nH]1 [compound 19893] | – | – | – | Clinical response rate (breast cancer): 44.4; Clinical response (bladder cancer): 23.1
4 | N.N.[Cl][Pt][Cl] [cisplatin] | 400 ng/mL | 11 | 16 | –
5 | CC/C(=C(\c1ccccc1)c1ccc(OCCN(C)C)cc1)c1ccccc1 [tamoxifen] | – | – | – | number of non-responders (recurrence <50 months) [2]: 16; number of responders (long-term survival >130 months) [2]: 11
6 | CCN(CC)CCNc1ccc2nc(C)n3c4ccc(OC)cc4c(=O)c1c23 [NSC 637993] | – | – | – | proportion of BLA-40 cell types with GI50 less than 10-6M ([3]; BLA-40 panel): > 60%; potency in BLA-40 compared with NCI-60 tissue panels [3]: more effective at a lower dose (1×10^−6M) in bladder cancer; potency in BLA-40 compared with NCI-60 tissue panels ([3]; listed as NSC637993): more potent overall in the BLA-40 bladder cancers than in any of the organ-of-origin types included in the NCI-60
7 | CC(=O)O[C@H]1C(=O)[C@@]2(C)[C@H]([C@H](OC(=O)c3ccccc3)[C@]3(O)C[C@H](OC(=O)[C@H](O)[C@@H](NC(=O)c4ccccc4)c4ccccc4)C(C)=C1C3(C)C)[C@]1(OC(C)=O)CO[C@@H]1C[C@@H]2O [Paclitaxel] | 0.005 µM | 11 | 17 | –
